In patent US20070270418A1, “Inhibitors of P38 and Methods of Using the Same” (priority 2003, published 2007):

Key:
[1] = system: TNFα release from THP-1 cells; experiment: TNFα release from LPS-stimulated THP-1 cells; assay type: cell-based; conditions: Homo sapiens, THP-1, 18 h, LPS 10 μg/ml, 18 hours; read-out: TNFα (THP-1) IC50
Method in brief: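 THP-1 cells (10^6 cells/ml on resuspension) preincubated with compound 30 min at 37°C, 5% CO2, final DMSO ≤0.5%, then stimulated with 10 μg/ml LPS for 18 h (TNFα). Supernatants collected for TNFα analysis.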

CDK2/cyclinA = molecular target: T1, CDK2/cyclinA (Homo sapiens, UniProt P24941); experiment: Broad selectivity panel, 32P incorporation; assay type: biochemical; conditions: 40 μM ATP, read-out: Percent inhibition CDK2/cyclinA; for inhibition at 0.1 µM: 0.1 μM compound; for inhibition at 1 µM: 1 μM compound
T1 construct: purchased Upstate (Charlottesville, Va.)
Method: (§1) Various compounds of the present invention are screened against a panel of 24 additional kinases (Upstate, Charlottesville, Va.). Compounds are tested 0.1 μM and 1 μM in reactions containing 40 μM ATP. Incorporation of radiolabeled phosphate (^32P) into each kinase substrate is measured in the presence and absence of test compound. Results are reported as the percent decrease in the amount of ^32P incorporated into the substrate in the presence of compound, compared to buffer control.

CK2 = molecular target: T2, CK2 (Homo sapiens, UniProt P68400); experiment: Broad selectivity panel, 32P incorporation; assay type: biochemical; conditions: 40 μM ATP, read-out: Percent inhibition CK2; for inhibition at 0.1 µM: 0.1 μM compound; for inhibition at 1 µM: 1 μM compound
T2 construct: purchased Upstate (Charlottesville, Va.)
T2 sequence (P68400 whole entry): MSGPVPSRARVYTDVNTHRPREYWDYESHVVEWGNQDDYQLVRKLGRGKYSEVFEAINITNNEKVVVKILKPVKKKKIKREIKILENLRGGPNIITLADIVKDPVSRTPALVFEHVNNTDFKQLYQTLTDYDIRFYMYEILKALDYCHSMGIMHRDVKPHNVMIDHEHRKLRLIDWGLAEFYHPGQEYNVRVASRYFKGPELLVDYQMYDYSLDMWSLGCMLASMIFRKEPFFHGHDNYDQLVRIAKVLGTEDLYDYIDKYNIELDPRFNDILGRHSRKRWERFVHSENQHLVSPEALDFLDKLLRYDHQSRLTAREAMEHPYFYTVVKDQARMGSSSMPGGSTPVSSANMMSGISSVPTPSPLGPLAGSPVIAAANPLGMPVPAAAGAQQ
T2 sequence (P67870 whole entry partner): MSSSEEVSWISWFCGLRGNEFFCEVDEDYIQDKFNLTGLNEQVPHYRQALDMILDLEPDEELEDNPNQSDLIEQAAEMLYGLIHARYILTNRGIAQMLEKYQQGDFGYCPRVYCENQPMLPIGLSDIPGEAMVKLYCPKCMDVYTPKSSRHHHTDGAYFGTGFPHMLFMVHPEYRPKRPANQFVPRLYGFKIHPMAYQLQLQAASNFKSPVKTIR
Method: as §1

FGFR3 = molecular target: T3, FGFR3 (Homo sapiens, UniProt P22607); experiment: Broad selectivity panel, 32P incorporation; assay type: biochemical; conditions: 40 μM ATP, read-out: Percent inhibition FGFR3; for inhibition at 0.1 µM: 0.1 μM compound; for inhibition at 1 µM: 1 μM compound
T3 construct: purchased Upstate (Charlottesville, Va.)
T3 sequence (P22607 23-806, species assumed): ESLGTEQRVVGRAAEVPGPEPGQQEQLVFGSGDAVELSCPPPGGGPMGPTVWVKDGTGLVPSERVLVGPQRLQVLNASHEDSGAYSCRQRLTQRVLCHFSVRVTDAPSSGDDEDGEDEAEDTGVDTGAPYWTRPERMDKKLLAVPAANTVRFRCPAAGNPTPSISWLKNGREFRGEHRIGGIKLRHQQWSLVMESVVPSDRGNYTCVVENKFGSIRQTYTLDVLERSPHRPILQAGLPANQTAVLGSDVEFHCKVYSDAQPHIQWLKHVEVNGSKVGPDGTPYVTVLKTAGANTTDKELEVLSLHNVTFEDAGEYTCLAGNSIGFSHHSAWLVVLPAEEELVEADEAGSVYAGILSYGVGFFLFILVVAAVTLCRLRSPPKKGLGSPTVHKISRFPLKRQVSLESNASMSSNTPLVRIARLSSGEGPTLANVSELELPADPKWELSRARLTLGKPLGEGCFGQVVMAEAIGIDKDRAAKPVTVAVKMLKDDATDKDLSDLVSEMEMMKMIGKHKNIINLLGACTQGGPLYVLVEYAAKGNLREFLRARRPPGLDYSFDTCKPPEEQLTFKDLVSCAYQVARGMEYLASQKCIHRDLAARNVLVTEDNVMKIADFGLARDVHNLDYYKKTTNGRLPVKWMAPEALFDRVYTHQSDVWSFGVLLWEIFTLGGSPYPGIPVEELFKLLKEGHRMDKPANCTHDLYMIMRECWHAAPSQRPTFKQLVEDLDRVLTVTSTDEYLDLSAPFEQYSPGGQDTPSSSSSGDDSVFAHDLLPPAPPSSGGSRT
Method: as §1

JNK1α1 = molecular target: T4, JNK1α1 (Homo sapiens, UniProt P45983); experiment: Broad selectivity panel, 32P incorporation; assay type: biochemical; conditions: 40 μM ATP, read-out: Percent inhibition JNK1α1; for inhibition at 0.1 µM: 0.1 μM compound; for inhibition at 1 µM: 1 μM compound
T4 construct: purchased Upstate (Charlottesville, Va.)
T4 sequence (P45983 1-384 isoform P45983-2, species assumed): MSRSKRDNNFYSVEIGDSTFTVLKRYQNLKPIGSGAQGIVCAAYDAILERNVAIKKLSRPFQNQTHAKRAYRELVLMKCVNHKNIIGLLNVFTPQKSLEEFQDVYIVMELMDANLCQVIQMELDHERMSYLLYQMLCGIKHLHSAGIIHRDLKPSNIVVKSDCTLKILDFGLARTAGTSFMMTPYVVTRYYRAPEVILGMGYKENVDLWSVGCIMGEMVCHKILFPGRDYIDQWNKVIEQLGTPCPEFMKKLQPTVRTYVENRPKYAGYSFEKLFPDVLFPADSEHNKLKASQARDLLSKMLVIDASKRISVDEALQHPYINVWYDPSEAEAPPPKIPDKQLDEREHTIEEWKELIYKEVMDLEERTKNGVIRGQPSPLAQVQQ
Method: as §1

Lyn = molecular target: T5, Lyn (Homo sapiens, UniProt P07948); experiment: Broad selectivity panel, 32P incorporation; assay type: biochemical; conditions: 40 μM ATP, read-out: Percent inhibition Lyn; for inhibition at 0.1 µM: 0.1 μM compound; for inhibition at 1 µM: 1 μM compound
T5 construct: purchased Upstate (Charlottesville, Va.)
T5 sequence (P07948 whole entry, species assumed): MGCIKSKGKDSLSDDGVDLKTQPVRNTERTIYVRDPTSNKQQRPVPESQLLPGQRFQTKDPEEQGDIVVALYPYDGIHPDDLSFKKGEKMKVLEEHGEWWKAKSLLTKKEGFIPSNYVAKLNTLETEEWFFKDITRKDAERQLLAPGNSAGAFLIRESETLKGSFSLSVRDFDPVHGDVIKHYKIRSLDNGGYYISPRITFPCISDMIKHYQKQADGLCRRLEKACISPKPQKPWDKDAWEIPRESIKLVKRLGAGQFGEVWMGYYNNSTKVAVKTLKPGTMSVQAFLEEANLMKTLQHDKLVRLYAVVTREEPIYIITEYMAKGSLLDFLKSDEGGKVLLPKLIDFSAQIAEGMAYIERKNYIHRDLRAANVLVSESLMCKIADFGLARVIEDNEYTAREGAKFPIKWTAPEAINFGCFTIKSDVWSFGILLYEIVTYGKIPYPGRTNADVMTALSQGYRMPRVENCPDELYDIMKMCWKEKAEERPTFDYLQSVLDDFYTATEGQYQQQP
Method: as §1

MAPK1 = molecular target: T6, MAPK1 (Homo sapiens, UniProt P27361); experiment: Broad selectivity panel, 32P incorporation; assay type: biochemical; conditions: 40 μM ATP, read-out: Percent inhibition MAPK1; for inhibition at 0.1 µM: 0.1 μM compound; for inhibition at 1 µM: 1 μM compound
T6 construct: purchased Upstate (Charlottesville, Va.)
T6 sequence (P27361 whole entry): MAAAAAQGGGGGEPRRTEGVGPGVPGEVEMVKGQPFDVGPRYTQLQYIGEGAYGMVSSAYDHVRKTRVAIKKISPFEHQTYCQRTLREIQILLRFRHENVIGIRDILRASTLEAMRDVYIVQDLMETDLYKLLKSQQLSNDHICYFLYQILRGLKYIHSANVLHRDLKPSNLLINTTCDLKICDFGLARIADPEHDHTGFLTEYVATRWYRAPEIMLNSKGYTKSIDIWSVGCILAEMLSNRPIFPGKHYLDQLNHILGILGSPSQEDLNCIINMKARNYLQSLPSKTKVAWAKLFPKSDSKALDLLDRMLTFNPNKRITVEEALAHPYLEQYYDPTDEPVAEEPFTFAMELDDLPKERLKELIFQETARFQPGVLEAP
Method: as §1

MEK1 = molecular target: T7, MEK1 (Homo sapiens, UniProt Q02750); experiment: Broad selectivity panel, 32P incorporation; assay type: biochemical; conditions: 40 μM ATP, read-out: Percent inhibition MEK1; for inhibition at 0.1 µM: 0.1 μM compound; for inhibition at 1 µM: 1 μM compound
T7 construct: purchased Upstate (Charlottesville, Va.)
T7 sequence (Q02750 whole entry, species assumed): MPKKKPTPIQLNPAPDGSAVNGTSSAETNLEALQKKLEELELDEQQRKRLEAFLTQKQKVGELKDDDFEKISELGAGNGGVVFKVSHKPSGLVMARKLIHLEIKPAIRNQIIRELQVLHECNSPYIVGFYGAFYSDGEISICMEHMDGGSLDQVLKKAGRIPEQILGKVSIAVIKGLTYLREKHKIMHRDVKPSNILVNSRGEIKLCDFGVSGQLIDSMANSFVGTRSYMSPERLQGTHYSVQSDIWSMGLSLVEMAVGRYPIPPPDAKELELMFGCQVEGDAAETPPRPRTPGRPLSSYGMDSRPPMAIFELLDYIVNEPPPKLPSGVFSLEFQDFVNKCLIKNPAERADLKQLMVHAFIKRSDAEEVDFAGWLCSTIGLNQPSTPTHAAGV
Method: as §1

PKA = molecular target: T8, PKA (Homo sapiens, UniProt P17612); experiment: Broad selectivity panel, 32P incorporation; assay type: biochemical; conditions: 40 μM ATP, read-out: Percent inhibition PKA; for inhibition at 0.1 µM: 0.1 μM compound; for inhibition at 1 µM: 1 μM compound
T8 construct: purchased Upstate (Charlottesville, Va.)
Method: as §1

PKB α = molecular target: T9, PKB α (Homo sapiens, UniProt P31749); experiment: Broad selectivity panel, 32P incorporation; assay type: biochemical; conditions: 40 μM ATP, read-out: Percent inhibition PKB α; for inhibition at 0.1 µM: 0.1 μM compound; for inhibition at 1 µM: 1 μM compound
T9 construct: purchased Upstate (Charlottesville, Va.)
T9 sequence (P31749 whole entry, species assumed): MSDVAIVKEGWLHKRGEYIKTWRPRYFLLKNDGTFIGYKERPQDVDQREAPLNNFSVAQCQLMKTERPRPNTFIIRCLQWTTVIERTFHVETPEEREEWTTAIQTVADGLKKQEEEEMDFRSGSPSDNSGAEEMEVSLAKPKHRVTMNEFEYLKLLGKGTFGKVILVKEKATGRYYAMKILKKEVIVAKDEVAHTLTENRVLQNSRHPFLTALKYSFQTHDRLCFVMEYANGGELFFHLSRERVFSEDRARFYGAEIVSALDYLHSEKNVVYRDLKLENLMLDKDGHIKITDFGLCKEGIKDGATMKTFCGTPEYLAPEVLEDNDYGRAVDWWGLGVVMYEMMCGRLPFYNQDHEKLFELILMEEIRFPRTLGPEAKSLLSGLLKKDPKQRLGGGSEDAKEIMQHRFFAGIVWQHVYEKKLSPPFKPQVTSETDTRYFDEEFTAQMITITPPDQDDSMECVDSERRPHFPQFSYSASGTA
Method: as §1

ZAP-70 = molecular target: T10, ZAP-70 (Homo sapiens, UniProt P43403); experiment: Broad selectivity panel, 32P incorporation; assay type: biochemical; conditions: 40 μM ATP, read-out: Percent inhibition ZAP-70; for inhibition at 0.1 µM: 0.1 μM compound; for inhibition at 1 µM: 1 μM compound
T10 construct: purchased Upstate (Charlottesville, Va.)
T10 sequence (P43403 1-619): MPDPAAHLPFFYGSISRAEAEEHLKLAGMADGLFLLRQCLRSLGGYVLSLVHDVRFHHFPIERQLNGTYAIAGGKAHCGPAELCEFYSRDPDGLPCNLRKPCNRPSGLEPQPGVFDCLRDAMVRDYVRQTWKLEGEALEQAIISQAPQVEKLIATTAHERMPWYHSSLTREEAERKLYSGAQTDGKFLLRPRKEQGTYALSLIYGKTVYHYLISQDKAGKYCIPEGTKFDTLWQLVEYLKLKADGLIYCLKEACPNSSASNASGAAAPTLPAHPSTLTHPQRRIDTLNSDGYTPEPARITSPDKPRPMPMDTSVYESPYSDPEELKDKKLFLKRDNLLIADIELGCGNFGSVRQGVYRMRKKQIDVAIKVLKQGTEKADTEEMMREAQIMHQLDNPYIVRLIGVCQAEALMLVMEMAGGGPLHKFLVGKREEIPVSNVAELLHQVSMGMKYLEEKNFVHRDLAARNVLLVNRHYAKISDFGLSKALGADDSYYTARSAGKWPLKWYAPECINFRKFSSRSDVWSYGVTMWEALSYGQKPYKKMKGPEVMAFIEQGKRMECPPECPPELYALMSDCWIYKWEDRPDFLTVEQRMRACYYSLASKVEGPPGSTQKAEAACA
Method: as §1

p70S6K = experiment: Broad selectivity panel, 32P incorporation; assay type: biochemical; conditions: 40 μM ATP
Method: as §1

SMILES | IC50 [1] | inhibition at 0.1 µM (CDK2/cyclinA) | inhibition at 1 µM (CDK2/cyclinA) | inhibition at 0.1 µM (CK2) | inhibition at 1 µM (CK2) | inhibition at 0.1 µM (FGFR3) | inhibition at 1 µM (FGFR3) | inhibition at 0.1 µM (JNK1α1) | inhibition at 1 µM (JNK1α1) | inhibition at 0.1 µM (Lyn) | inhibition at 1 µM (Lyn) | inhibition at 0.1 µM (MAPK1) | inhibition at 1 µM (MAPK1) | inhibition at 0.1 µM (MEK1) | inhibition at 1 µM (MEK1) | inhibition at 0.1 µM (PKA) | inhibition at 1 µM (PKA) | inhibition at 0.1 µM (PKB α) | inhibition at 1 µM (PKB α) | inhibition at 0.1 µM (ZAP-70) | also measured
CS(=O)(=O)N1CCC(Nc2nccc(-c3c(-c4ccc(F)cc4)nc4occn34)n2)CC1 [CCLXXIX] | 5.1 nM | 24% | 65% | 8% | 4% | 9% | 10% | 37% | 86% | -7% | -13% | 29% | 79% | 7% | 11% | 6% | -2% | 5% | 6% | 13% | inhibition at 1 µM (ZAP-70): -1%; Percent inhibition p70S6K (p70S6K; 0.1 μM compound): 9; Percent inhibition p70S6K (p70S6K; 1 μM compound): 10
CC(=O)N1CCC(Nc2nccc(-c3c(-c4ccc(F)cc4)nc4occn34)n2)CC1 [CCLXXVIII] | 9.26 nM | 1% | 20% | 5% | 10% | 19% | 32% | -13% | 61% | -26% | -29% | 25% | 63% | 6% | 13% | -6% | 10% | -6% | 4% | -53% | inhibition at 1 µM (ZAP-70): 18%; Percent inhibition p70S6K (p70S6K; 0.1 μM compound): −11; Percent inhibition p70S6K (p70S6K; 1 μM compound): 4
CN1[C@@H]2CC[C@H]1C[C@@H](Nc1nccc(-c3c(-c4ccc(F)cc4)nc4occn34)n1)C2 [CCLXXXI] | 3.64 nM | -2% | 5% | 6% | 16% | -27% | 26% | -13% | 6% | -6% | 4% | 25% | 49% | -3% | 7% | -11% | -2% | -2% | 6% | 12% | inhibition at 1 µM (ZAP-70): 30%; Percent inhibition p70S6K (p70S6K; 0.1 μM compound): −16; Percent inhibition p70S6K (p70S6K; 1 μM compound): −10
Fc1ccc(-c2nc3occn3c2-c2ccnc(NC3CCNCC3)n2)cc1 [CCLXXX] | 7.89 nM | 3% | 19% | 10% | 32% | -1% | 13% | -26% | 18% | -24% | 27% | 20% | 45% | 9% | 13% | 0% | 11% | -1% | 13% | -2% | inhibition at 1 µM (ZAP-70): 9%; Percent inhibition p70S6K (p70S6K; 0.1 μM compound): 7; Percent inhibition p70S6K (p70S6K; 1 μM compound): 18
CN(C)CC(C)(C)CNc1nccc(-c2c(-c3ccc(F)cc3)nc3occn23)n1 [CXIX] | 33.1 nM | -1% | -1% | 9% | 3% | 9% | -2% | -1% | -18% | 2% | -12% | 7% | 15% | -1% | 2% | 1% | -8% | 11% | 5% | 13% | inhibition at 1 µM (ZAP-70): -9%; Percent inhibition p70S6K (p70S6K; 0.1 μM compound): 0; Percent inhibition p70S6K (p70S6K; 1 μM compound): −5
Fc1ccc(-c2nc3occn3c2-c2ccnc(N[C@@H]3CN4CCC3CC4)n2)cc1 [LXXI] | 19.1 nM | 0% | 8% | 3% | 12% | -1% | 16% | -20% | 3% | 4% | 10% | 27% | 56% | 2% | 6% | 16% | 11% | -5% | 9% | -17% | inhibition at 1 µM (ZAP-70): 4%; Percent inhibition p70S6K (p70S6K; 0.1 μM compound): −10; Percent inhibition p70S6K (p70S6K; 1 μM compound): 6
Fc1ccc(-c2nc3occn3c2-c2ccnc(NC3CN4CCC3CC4)n2)cc1 (stereo not drawn) [LXXXIV] | 9.28 nM |  |  |  |  |  |  |  |  |  |  |  |  |  |  |  |  |  |  |  | 
Fc1ccc(-c2nc3occn3c2-c2ccnc(N[C@H]3CN4CCC3CC4)n2)cc1 [LXXXVII] | 1.87 nM | 1% | 0% | 4% | 4% | -23% | -21% | -25% | 0% | -32% | -13% | 12% | 27% | 3% | -1% | -10% | -6% | -2% | 5% | -51% | inhibition at 1 µM (ZAP-70): -14%; Percent inhibition p70S6K (p70S6K; 0.1 μM compound): −4; Percent inhibition p70S6K (p70S6K; 1 μM compound): −1
